{"source": "patent US10905125B2", "about": "“Biocidal compositions and method of treating water using thereof” (BWA WATER ADDITIVES UK LIMITED, priority 2014, dated 2021)", "key": {"Desulfovibrio vulgaris": {"system": "Desulfovibrio vulgaris", "assay": "Log10 reduction of viable anaerobe cells in saline phosphate buffer suspension (serial dilution into API RP 38 media vials)", "assay_type": "cell-based", "conditions": "for Log10 Reduction Anaerobes: pH 7.5 phosphate buffer, room temperature; for efficacy against the anaerobe Desulfovibrio vulgaris (in words): agent alone", "protocol": "(§1) A suspension of Desulfovibrio vulgaris plus Enterobacter aerogenes bacteria containing from 1××10^6 to 1×10^8 cells/mL was prepared in sterile pH 7.5 phosphate buffer containing varying levels of sodium chloride to give the desired total dissolved solids (TDS) concentration. Aliquots of this suspension were dosed with the indicated concentrations of a phosphonium compound and a hypohalite compound with the concentrations being measured as ppm by weight of the stated compounds added to the dosed suspension. The mixtures were allowed to stand at room temperature. At the designated contact times, each mixture was sampled to determine the total number of viable cells of both Desulfovibrio vulgaris and Enterobacter aerogenes by serial 10-fold dilution into API RP 38 media vials and anaerobic acid producing media vials, respectively. The vials were incubated at 37° C. for 72 hours. Results were recorded as cells per millilitre.\n(§2) Aqueous media inoculated with anaerobe and facultative anaerobe culture and having a TDS of 10,000 mg l^−1; 20,000 mg l^−1; or 30,000 mg l^−1 was treated with treatment agents comprising: (i) sodium hypochlorite; (ii) tri n-butyl n-tetradecyl phosphonium chloride (TTPC) or (iii) a combination of sodium hypochlorite and TTPC.\n(§3) TTPC was used in the form of Bellacide 355, an aqueous composition of TTPC and water consisting of water and […] of TTPC available from BWA Water Additives.\n(§4) Sodium hypochlorite was used in the form of Clorox, an aqueous composition of sodium hypochlorite and water consisting of water and 6% by weight sodium hypochlorite available from The Clorox Company.\n(§5) The efficacy of the treatment agents was evaluated by measuring the Log 10 Reduction of the anaerobe Desulfovibrio vulgaris and the facultative anaerobe Enterobacter aerogenes [after contact times of 10 and 30 minutes as detailed in Table 1. For TTPC and sodium hypochlorite the stated ppm values relate to the amount added. The addition of 35 ppm sodium hypochlorite to the aqueous system provided 2 ppm of free sodium hypochlorite in the treated aqueous system."}, "Enterobacter aerogenes": {"system": "Enterobacter aerogenes", "assay": "Log10 reduction of viable facultative anaerobe cells in saline phosphate buffer suspension (serial dilution into anaerobic acid producing media vials)", "assay_type": "cell-based", "conditions": "for Log10 Reduction Facultative Anaerobes: pH 7.5 phosphate buffer, room temperature; for efficacy against the facultative anaerobe Enterobacter aerogenes (in words): agent alone", "protocol": "as §1, §2, §3, §4, §5"}, "[1]": {"conditions": "TDS 20,000 mg l-1, contact time 30 minutes, listed as 3 (comparative)"}, "[2]": {"conditions": "TDS 20,000 mg l-1, contact time 30 minutes, listed as 4 (comparative)"}, "[3]": {"conditions": "TDS 30,000 mg l-1, contact time 30 minutes"}, "[4]": {"conditions": "TDS 30,000 mg l-1, contact time 10 minutes"}, "[5]": {"conditions": "TDS 30,000 mg l-1, contact times of 10 and 30 minutes"}}, "data": [{"smiles": "CCCCCCCCCCCCCC[P+](CCCC)(CCCC)CCCC.[Cl-]", "note": "[Example 1]", "values": [{"measurement": "Log10 Reduction Anaerobes", "setting": "Desulfovibrio vulgaris; TDS 10,000 mg l-1, contact time 30 minutes", "result": 6}, {"measurement": "Log10 Reduction Facultative Anaerobes", "setting": "Enterobacter aerogenes; TDS 10,000 mg l-1, contact time 30 minutes, listed as 1 (comparative)", "result": 6}]}, {"smiles": "CCCCCCCCCCCCCC[P+](CCCC)(CCCC)CCCC.[Cl-]", "note": "[Example 2]", "values": [{"measurement": "Log10 Reduction Facultative Anaerobes", "setting": "Enterobacter aerogenes; TDS 10,000 mg l-1, contact time 30 minutes, listed as 2 (comparative)", "result": 8}]}, {"smiles": "CCCCCCCCCCCCCC[P+](CCCC)(CCCC)CCCC.[Cl-]", "note": "[Example 3]", "values": [{"measurement": "Log10 Reduction Anaerobes", "setting": "Desulfovibrio vulgaris; [1]", "result": 3}, {"measurement": "Log10 Reduction Facultative Anaerobes", "setting": "Enterobacter aerogenes; [1]", "result": 0}]}, {"smiles": "CCCCCCCCCCCCCC[P+](CCCC)(CCCC)CCCC.[Cl-]", "note": "[Example 4]", "values": [{"measurement": "Log10 Reduction Anaerobes", "setting": "Desulfovibrio vulgaris; [2]", "result": 6}, {"measurement": "Log10 Reduction Facultative Anaerobes", "setting": "Enterobacter aerogenes; [2]", "result": 5}]}, {"smiles": "CCCCCCCCCCCCCC[P+](CCCC)(CCCC)CCCC.[Cl-]", "note": "[Example 5]", "values": [{"measurement": "Log10 Reduction Anaerobes", "setting": "Desulfovibrio vulgaris; [3]", "result": 0}, {"measurement": "Log10 Reduction Facultative Anaerobes", "setting": "Enterobacter aerogenes; [3]", "result": 0}]}, {"smiles": "[Na+].[O-]Cl", "note": "[Example 6]", "values": [{"measurement": "Log10 Reduction Anaerobes", "setting": "Desulfovibrio vulgaris; [3]", "result": 3}, {"measurement": "Log10 Reduction Facultative Anaerobes", "setting": "Enterobacter aerogenes; [3]", "result": 3}]}, {"smiles": "[Na+].[O-]Cl", "note": "[Example 11]", "values": [{"measurement": "Log10 Reduction Anaerobes", "setting": "Desulfovibrio vulgaris; [4]", "result": 5}, {"measurement": "Log10 Reduction Facultative Anaerobes", "setting": "Enterobacter aerogenes; [4]", "result": 2}]}, {"smiles": "OCl", "note": "[Sodium hypochlorite, sodium hypochlorite]", "values": [{"measurement": "efficacy against the anaerobe Desulfovibrio vulgaris (in words)", "setting": "Desulfovibrio vulgaris; [5]", "result": "some efficacy"}, {"measurement": "efficacy against the facultative anaerobe Enterobacter aerogenes (in words)", "setting": "Enterobacter aerogenes; [5]", "result": "some efficacy"}]}, {"smiles": "CCCCCCCCCCCCCC[P+](CCCC)(CCCC)CCCC.[Cl-]", "note": "[TTPC, tri n-butyl n-tetradecyl phosphonium chloride]", "values": [{"measurement": "efficacy against the anaerobe Desulfovibrio vulgaris (in words)", "setting": "Desulfovibrio vulgaris; [3]", "result": "ineffective"}, {"measurement": "efficacy against the facultative anaerobe Enterobacter aerogenes (in words)", "setting": "Enterobacter aerogenes; [3]", "result": "ineffective"}]}]}
